Patent publication US20100160228A1, “METHOD FOR INHIBITING OR STIMULATING ANGIOGENESIS IN AN INDIVIDUAL” (VALTION TEKNILLINEN TUTKIMUSKESKUS, priority 2007, published 2010)

What was measured:
Assay type in all cases: cell-based, human
HUVEC [1] = assay: Transwell chemotaxis assay towards VEGF
Procedure: (§1) FIG. 3. TCPTP activity controls VEGF-dependent responses in endothelial cells. (A) HUVEC were transfected with the constitutively active TCPTP (TC37) or vector control (pCG), stimulated or not with VEGF, and stained for VEGFR2 (red) and nuclei (blue) after fixation and permeabilization. Arrows indicate VEGFR2 vesicles. (B) HUVEC were treated as in (A) and subjected to trypsin digestion on ice. VEGFR2 protected from trypsin (=internalized pool) was detected by immunoblotting. The intensities of VEGFR2 bands were quantified and are expressed relative to pCG-VEGF control. A representative experiment out of 2 with similar results is shown. (C) HUVEC were transfected with no oligo, siRNA against TCPTP or a control siRNA, and TCPTP expression was measured using immunoblotting. Cells were treated with 80 ng/ml VEGF and proliferation of sparse cells plated on gelatin was assayed after 16 h using BrdU-based assay (mean±SD; n=4-6; *, p<0.05). (D) HUVEC were transfected as in (A) and chemotaxis towards VEGF was measured using a Transwell assay for 4 hours. Cells adhering to the bottom of the filter were fixed and stained with crystal violet. Number of migrated cells was counted (mean±SEM, n=3).
(§2) FIG. 5. Controlled TCPTP activation inhibits VEGF-driven capillary formation, chemokinesis and chemotaxis. (A) HUVEC were cultured in fibrin gels and treated with or without VEGF and TAT peptides (200 nM). After 24 h the formation of capillary tubes was semiquantitatively scored. (B) HUVEC were plated on gelatin in the presence of the peptides (200 nM) or left untreated for 1 h. The cells were stimulated as indicated and migration of individual cells was tracked using time-lapse microscopy. Cumulative migration distance was plotted for randomly picked individual cells. (C) HUVEC were treated with 200 nM peptides and the transmigration assay was performed as in FIG. 3D. (D) HUVEC were transfected with siRNA against TCPTP or a control siRNA, and TCPTP expression was analysed with immunofluorescence. Equal exposures of TCPTP (green) and DAPI (blue) stainings are shown. 48 h post-transfection cells were subjected to transmigration assay as in […].
Chemotaxis assays. HUVEC electroporated with the DNA or siRNA or non-transfected HUVEC were treated with 200 nM α1TAT, ScrTAT or left untreated for 1 h. Transwell filters (8 μm pore size, Costar, Cambridge, Mass.) were coated with gelatin and medium (RPMI, 4 mM L-glutamine, 10% FBS) and VEGF (100 ng/ml) were added to the lower chamber. Cells were harvested from the culture plates, and transferred into the Transwell inserts (4×10^5 cells/well) in RPMI with 0.2% soybean trypsin inhibitor. […] The inserts were fixed in 4% paraformaldehyde, cells stained with 0.5% crystal violet and the number of migrated cells was counted using a microscope.

HUVEC [2] = assay: VEGF-induced HUVEC proliferation assay; conditions: subconfluent HUVEC on gelatine, compared to no peptide treatment, n=3
Procedure: as §1, with “Cells were treated with 80 ng/ml VEGF and proliferation of sparse cells plated on gelatin was assayed after 16 h using BrdU-based assay (mean±SD; n=4-6; *, p<0.05).” left out, “Cells adhering to the bottom of the filter were fixed and stained with crystal violet.” left out
Cell proliferation and survival assays. The number of viable HUVEC was analyzed with WST-1 reagent (Roche). Cell proliferation was measured with BrdU assay (Cell proliferation ELISA Biotrak system, Amersham) from siRNA-transfected HUVEC grown in RPMI1640+1% FBS+2 mM L-glutamine supplemented with 80 ng/ml VEGF.

HUVEC [3] = assay: Fibrin-gel in vitro angiogenesis (capillary tube formation) assay; conditions: VEGF, 24 h, FIG. 5A
Procedure: as §2
Tube formation assays. In the fibrin-gel in vitro angiogenesis assay (Chemicon) HUVEC were plated onto a fibrin-gel, and overlaid with a second fibrin-gel after an overnight culture. […] At the 24 h end-point the formation of cellular networks was quantified from three randomly-selected fields from each well. […] In the collagen overlay assay the number of closed polygons formed by capillary tubes was quantified.

[4] = HUVEC, 48 h post-transfection, FIG. 5D

| Sequence | effect on VEGF induced chemotaxis of TCPTP siRNA-treated cells (HUVEC [1]; [4]) | effect on VEGF-induced migration of scrambled siRNA treated cells (HUVEC [1]; [4]) | inhibition of VEGF-induced chemotaxis of HUVEC (HUVEC [1]; peptide 200 nM, Transwell 4 h, FIG. 5C) | inhibition of VEGF-induced proliferation (HUVEC [2]) | inhibition of capillary tube formation compared to control peptide treated cells (HUVEC [3]) | inhibition of capillary tube formation compared to non-treated cells (HUVEC [3]) |
| --- | --- | --- | --- | --- | --- | --- |
| YGRKKRRQRRRWKLGFFKRPLKKKMEK (SEQ ID NO 3) [α1TAT] | no inhibitory effects | effectively inhibited | inhibited | 74±8% | 40% | 60% |
| YGRKKRRQRRRLKGWRFKLKPKFKEMK (SEQ ID NO 8) [ScrTAT, reference compound] |  |  |  | 4±4% |  |  |
